Patent US20210161135A1, “WEED CONTROL FROM APPLICATIONS OF PYRIDINE CARBOXYLIC ACID HERBICIDES AND 4-HYDROXYPHENYL-PYRUVATE DIOXYGENASE (HPPD) INHIBITORS” (Dow AgroSciences LLC, priority 2018, published 2021)

Columns and labels:
Experiment in all cases: Postemergence herbicidal activity, greenhouse, visual injury after 20-22 d
Format in all cases: in vivo
[1] = system: barnyardgrass (Echinochloa crus-galli, ECHCG); conditions: two trials
Experimental: (§1) Seeds of the desired test plant species were planted in Sun Gro MetroMix® 306 planting mixture, which typically has a pH of 6.0 to 6.8 and an organic matter content of about 30 percent, in plastic pots with a surface area of 103.2 square centimeters (cm^2). When required to ensure good germination and healthy plants, a fungicide treatment and/or other chemical or physical treatment was applied. The plants were grown for 7-36 days (d) in a greenhouse with an approximate 14-hour (h) photoperiod which was maintained at about 23° C. during the day and 22° C. during the night. Nutrients and water were added on a regular basis and supplemental lighting was provided with overhead metal halide 1000-Watt lamps as necessary. The plants were employed for testing when they reached the second or third true leaf stage.
(§2) An emulsifiable concentrate (EC) formulation containing Compound 1 at 100 gai/L was prepared by combining Compound 1 with 1-butyl-2-pyrrolidinone (Tamisolve NxG; 360.5 g/L), benzyl acetate (544.6 g/L) and Agnique MBL 520L surfactant (52.9 g/L). […] The concentrated stock solutions were diluted with an aqueous mixture of 1.5% v/v of Agri-dex crop oil concentrate to provide the appropriate application rates. Compound requirements are based upon a 12 milliliter (mL) application volume at a rate of 187 liters per hectare (L/ha). Spray solutions of the experimental compound mixtures were prepared by adding the stock solutions to the appropriate amount of dilution solution to form a 12 mL spray solution in two-way combinations. Formulated compounds were applied to the plant material with an overhead Mandel track sprayer equipped with 8002E nozzles calibrated to deliver 187 L/ha over an application area of 0.503 square meters (m^2) at a spray height of […] above average plant canopy. Control plants were sprayed in the same manner with the solvent blank. Application rates for component (a) are in g ai/ha, and application rates for component (b) are in g ai/ha.
(§3) The treated plants and control plants were placed in a greenhouse as described above and watered by sub-irrigation to prevent wash-off of the test compounds. After 20-22 d, the condition of the test plants as compared with that of the control plants was determined visually and scored on a scale of 0 to 100 percent where 0 corresponds to no injury and 100 corresponds to complete kill. […] The Colby method was used to determine the herbicidal effects expected from the mixtures.

[2] = system: common chickweed (Stellaria media, STEME); conditions: two trials
Experimental: as §1, §2, §3

[3] = system: common lambsquarters (Chenopodium album L., CHEAL)
Experimental: as §1, §2, §3

[4] = system: giant foxtail (Setaria faberi, SETFA); conditions: two trials
Experimental: as §1, §2, §3

[5] = system: grain sorghum (Sorghum vulgare, SORVU); conditions: two trials
Experimental: as §1, §2, §3

[6] = system: ivyleaf morningglory (Ipomoea hederacea, IPOHE); conditions: two trials
Experimental: as §1, §2, §3

[7] = system: kochia (Kochia scoparia, KCHSC)
Experimental: as §1, §2, §3

[8] = system: large crabgrass (Digitaria sanguinalis, DIGSA); conditions: HPPD inhibitor 35 g ai/ha alone, two trials
Experimental: as §1, §2, §3

maize (Zea mays, ZEAMX) = conditions: two trials
Experimental: as §1, §2, §3

[9] = system: pigweed (Amaranthus retroflexus, AMARE); conditions: two trials
Experimental: as §1, §2, §3

[10] = system: poinsettia (Euphorbia heterophylla, EPHHL)
Experimental: as §1, §2, §3

[11] = system: soybean (Glycine max, GLXMA); conditions: two trials
Experimental: as §1, §2, §3

[12] = system: spring rape (Brassica napus, BRSNN)
Experimental: as §1, §2, §3

[13] = system: sunflower (Helianthus annuus, HELAN); conditions: two trials
Experimental: as §1, §2, §3

[14] = system: thistle (Cirsium arvense CIRAR)
Experimental: as §1, §2, §3

[15] = system: velvetleaf (Abutilon theophrasti, ABUTH)
Experimental: as §1, §2, §3

[16] = system: wild buckwheat (Polygonum convolvulus, POLCO)
Experimental: as §1, §2, §3

[17] = system: wild pansy (Viola tricolor, VIOTR)
Experimental: as §1, §2, §3

[18] = system: winter rape (Brassica napus, BRSNW); conditions: two trials
Experimental: as §1, §2, §3

[19] = system: rice (Oryza sativa, ORYSA); conditions: Sulcotrione 75 g ai/ha alone, two trials
Experimental: as §1, §2, §3

[20] = system: winter wheat (Triticum aestivum, TRZAW); conditions: Sulcotrione 75 g ai/ha alone, two trials
Experimental: as §1, §2, §3

[21] = HPPD inhibitor 35 g ai/ha alone
[22] = HPPD inhibitor 35 g ai/ha alone, two trials
[23] = Sulcotrione 75 g ai/ha alone, two trials

Compound: CS(=O)(=O)c1ccc(C(=O)C2C(=O)CCCC2=O)c([N+](=O)[O-])c1 [Mesotrione, 2-[4-(methylsulfonyl)-2-nitrobenzoyl]-1,3-cyclohexanedione]
- Effect (% visual injury), Obs [1, 21]: 10%
- Effect (% visual injury), Obs [2, 21]: 60%
- Effect (% visual injury), Obs [3, 22]: 100%
- Effect (% visual injury), Obs [4, 21]: 0%
- Effect (% visual injury), Obs [5, 21]: 0%
- Effect (% visual injury), Obs [6, 21]: 70%
- Effect (% visual injury), Obs [7, 22]: 70%
- Effect (% visual injury), Obs [8]: 20%
- Effect (% visual injury), Obs (maize (Zea mays, ZEAMX); [21]): 0%
- Effect (% visual injury), Obs [9, 21]: 30%
- Effect (% visual injury), Obs [10, 22]: 20%
- Effect (% visual injury), Obs [11, 21]: 70%
- Effect (% visual injury), Obs [12, 22]: 100%
- Effect (% visual injury), Obs [13, 21]: 93%
- Effect (% visual injury), Obs [14, 22]: 100%
- Effect (% visual injury), Obs [15, 22]: 88%
- Effect (% visual injury), Obs [16, 22]: 48%
- Effect (% visual injury), Obs [17, 22]: 58%
- Effect (% visual injury), Obs [18, 21]: 60%

Compound: Cc1ccc(S(=O)(=O)Oc2c(C(=O)c3ccc(Cl)cc3Cl)c(C)nn2C)cc1 [Pyrazolynate, (2,4-dichlorophenyl)[1,3-dimethyl-5-[[(4-methylphenyl)sulfonyl]oxy]-1H-pyrazol-4-yl]methanone]
- Effect (% visual injury), Obs ([3]; Pyrazolynate 225 g ai/ha alone): 10%
- Effect (% visual injury), Obs ([7]; Pyrazolynate 225 g ai/ha alone): 0%
- Effect (% visual injury), Obs ([10]; Pyrazolynate 225 g ai/ha alone): 0%
- Effect (% visual injury), Obs ([12]; Pyrazolynate 225 g ai/ha alone): 0%
- Effect (% visual injury), Obs ([14]; Pyrazolynate 225 g ai/ha alone): 0%
- Effect (% visual injury), Obs ([15]; Pyrazolynate 225 g ai/ha alone): 0%
- Effect (% visual injury), Obs ([16]; Pyrazolynate 225 g ai/ha alone): 0%
- Effect (% visual injury), Obs ([17]; Pyrazolynate 225 g ai/ha alone): 0%

Compound: CS(=O)(=O)c1ccc(C(=O)C2C(=O)CCCC2=O)c(Cl)c1 [Sulcotrione, 2-[2-chloro-4-(methylsulfonyl)benzoyl]-1,3-cyclohexanedione]
- Effect (% visual injury), Obs ([1]; Sulcotrione 75 g ai/ha alone): 40%
- Effect (% visual injury), Obs ([2]; Sulcotrione 75 g ai/ha alone): 85%
- Effect (% visual injury), Obs [3, 23]: 100%
- Effect (% visual injury), Obs ([4]; Sulcotrione 75 g ai/ha alone): 0%
- Effect (% visual injury), Obs ([5]; Sulcotrione 75 g ai/ha alone): 0%
- Effect (% visual injury), Obs ([6]; Sulcotrione 75 g ai/ha alone): 65%
- Effect (% visual injury), Obs [7, 23]: 45%
- Effect (% visual injury), Obs (maize (Zea mays, ZEAMX); Sulcotrione 75 g ai/ha alone): 0%
- Effect (% visual injury), Obs ([9]; Sulcotrione 75 g ai/ha alone): 40%
- Effect (% visual injury), Obs [10, 23]: 60%
- Effect (% visual injury), Obs [19]: 5%
- Effect (% visual injury), Obs ([11]; Sulcotrione 75 g ai/ha alone): 65%
- Effect (% visual injury), Obs [12, 23]: 95%
- Effect (% visual injury), Obs ([13]; Sulcotrione 75 g ai/ha alone): 80%
- Effect (% visual injury), Obs [14, 23]: 70%
- Effect (% visual injury), Obs [15, 23]: 50%
- Effect (% visual injury), Obs [16, 23]: 48%
- Effect (% visual injury), Obs [17, 23]: 73%
- Effect (% visual injury), Obs ([18]; Sulcotrione 75 g ai/ha alone): 70%
- Effect (% visual injury), Obs [20]: 0%
